Where a name gives a salt, the structure may show the parent alone.
Assays:
[1] = molecular target: 5-Hydroxytryptamine (Serotonin) Receptor 1B (5-HT1B) (Homo sapiens, UniProt P28222); assay: cAMP secondary messenger assay, 5-HT1B; type: cell-based
[2] = molecular target: Adenosine Receptor A2A (ADORA2A) (Homo sapiens, UniProt P29274); assay: Calcium flux assay, ADORA2A; type: cell-based
[3] = molecular target: T1, Cholecystokinin Receptor A (CCKAR) (Homo sapiens, UniProt P32238); assay: Calcium flux assay, CCKAR; type: cell-based
T1 sequence (P32238 1-428): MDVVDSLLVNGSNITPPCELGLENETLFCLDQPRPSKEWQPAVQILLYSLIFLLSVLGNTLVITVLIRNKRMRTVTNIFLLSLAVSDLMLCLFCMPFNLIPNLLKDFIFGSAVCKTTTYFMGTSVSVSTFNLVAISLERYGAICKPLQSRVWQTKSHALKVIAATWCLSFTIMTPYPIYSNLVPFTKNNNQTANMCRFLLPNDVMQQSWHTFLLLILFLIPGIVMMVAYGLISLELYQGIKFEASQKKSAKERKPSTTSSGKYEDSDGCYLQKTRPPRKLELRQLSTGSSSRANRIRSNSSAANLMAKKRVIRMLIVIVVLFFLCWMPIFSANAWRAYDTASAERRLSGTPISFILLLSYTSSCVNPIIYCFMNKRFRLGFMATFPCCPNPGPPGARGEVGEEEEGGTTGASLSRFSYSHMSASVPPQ

[4] = molecular target: Dopamine Receptor D2 (DRD2S) (Homo sapiens, UniProt P14416); assay: cAMP assay, DRD2S; type: cell-based
Chain of Dopamine Receptor D2 (DRD2S) (P14416 1-414 isoform P14416-2): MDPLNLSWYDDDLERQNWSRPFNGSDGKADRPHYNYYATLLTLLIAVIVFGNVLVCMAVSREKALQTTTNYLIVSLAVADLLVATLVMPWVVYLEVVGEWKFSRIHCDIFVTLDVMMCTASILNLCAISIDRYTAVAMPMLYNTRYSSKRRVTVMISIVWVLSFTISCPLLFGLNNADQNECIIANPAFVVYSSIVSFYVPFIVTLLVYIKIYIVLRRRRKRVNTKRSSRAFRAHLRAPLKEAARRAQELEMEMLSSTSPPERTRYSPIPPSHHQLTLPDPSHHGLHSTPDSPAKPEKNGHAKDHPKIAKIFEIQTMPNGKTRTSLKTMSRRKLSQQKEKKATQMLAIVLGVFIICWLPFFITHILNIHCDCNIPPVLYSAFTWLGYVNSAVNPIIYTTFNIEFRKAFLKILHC

[5] = molecular target: Histamine Receptor H2 (HRH2) (Homo sapiens, UniProt P25021); assay: cAMP assay, HRH2; type: cell-based
Chain of Histamine Receptor H2 (HRH2) (P25021 whole entry): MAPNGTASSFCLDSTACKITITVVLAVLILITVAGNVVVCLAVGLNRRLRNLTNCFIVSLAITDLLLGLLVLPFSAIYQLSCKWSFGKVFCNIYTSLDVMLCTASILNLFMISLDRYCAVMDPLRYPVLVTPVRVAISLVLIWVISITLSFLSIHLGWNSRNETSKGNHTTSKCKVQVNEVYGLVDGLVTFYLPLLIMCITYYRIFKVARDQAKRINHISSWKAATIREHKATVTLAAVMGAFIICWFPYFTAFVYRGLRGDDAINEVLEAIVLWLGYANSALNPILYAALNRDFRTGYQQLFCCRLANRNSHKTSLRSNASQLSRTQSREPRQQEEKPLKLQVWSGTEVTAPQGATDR

[6] = molecular target: T2, Acetylcholinesterase (AChE) (Homo sapiens, UniProt P22303); assay: Enzymatic assay, AChE; type: biochemical
T2 construct: purchased R&D Systems
T2 sequence (P22303 32-614): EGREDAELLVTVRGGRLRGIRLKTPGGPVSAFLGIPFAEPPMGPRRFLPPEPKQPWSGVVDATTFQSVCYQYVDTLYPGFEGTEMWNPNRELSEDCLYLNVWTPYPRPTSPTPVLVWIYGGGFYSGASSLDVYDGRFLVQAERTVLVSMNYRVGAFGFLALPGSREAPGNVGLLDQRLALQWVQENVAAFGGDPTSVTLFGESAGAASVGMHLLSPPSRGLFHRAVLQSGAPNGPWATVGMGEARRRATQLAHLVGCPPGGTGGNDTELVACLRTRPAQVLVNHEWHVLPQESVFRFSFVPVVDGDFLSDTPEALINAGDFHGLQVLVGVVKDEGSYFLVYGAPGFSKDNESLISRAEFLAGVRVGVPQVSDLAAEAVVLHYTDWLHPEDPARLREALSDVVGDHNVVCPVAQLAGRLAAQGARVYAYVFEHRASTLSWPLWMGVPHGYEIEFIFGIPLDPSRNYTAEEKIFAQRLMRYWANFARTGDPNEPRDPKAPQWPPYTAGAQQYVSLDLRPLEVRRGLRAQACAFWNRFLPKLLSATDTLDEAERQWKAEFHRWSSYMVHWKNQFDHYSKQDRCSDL

[7] = molecular target: T3, CAMP-specific 3′,5′-cyclic phospho-diesterase (PDE4D2) (Homo sapiens, UniProt Q08499); assay: Enzymatic assay, PDE4D2; type: biochemical
T3 construct: purchased Signal Chem
T3 sequence (Q08499 303-809 limits assumed): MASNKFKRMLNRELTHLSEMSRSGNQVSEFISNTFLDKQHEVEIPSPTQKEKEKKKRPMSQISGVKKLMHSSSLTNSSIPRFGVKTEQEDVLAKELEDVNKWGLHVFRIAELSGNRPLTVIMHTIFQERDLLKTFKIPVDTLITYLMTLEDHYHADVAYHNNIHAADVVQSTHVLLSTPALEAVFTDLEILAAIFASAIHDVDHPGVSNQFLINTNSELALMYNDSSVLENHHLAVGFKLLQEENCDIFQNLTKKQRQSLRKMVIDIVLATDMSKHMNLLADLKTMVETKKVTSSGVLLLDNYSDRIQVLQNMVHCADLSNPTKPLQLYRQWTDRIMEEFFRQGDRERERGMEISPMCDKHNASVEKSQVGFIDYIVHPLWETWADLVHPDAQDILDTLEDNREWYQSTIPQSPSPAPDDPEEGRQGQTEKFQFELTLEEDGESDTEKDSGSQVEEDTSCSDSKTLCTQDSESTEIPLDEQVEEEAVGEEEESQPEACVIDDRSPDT

[8] = molecular target: T4, Rho Associated Coiled-Coil Containing Protein Kinase 1 (ROCK1) (Homo sapiens, UniProt Q13464); assay: KINOMEscan binding assay, ROCK1
T4 construct: made in house; host or cells: E. coli BL21-derived host (T7 phage) or HEK-293

[9] = molecular target: T5, Insulin Receptor (tyrosine kinase) (INSR) (Homo sapiens, UniProt P06213); assay: KINOMEscan binding assay, INSR
T5 construct: made in house; host or cells: E. coli BL21-derived host (T7 phage) or HEK-293
T5 sequence (P06213 28-1382): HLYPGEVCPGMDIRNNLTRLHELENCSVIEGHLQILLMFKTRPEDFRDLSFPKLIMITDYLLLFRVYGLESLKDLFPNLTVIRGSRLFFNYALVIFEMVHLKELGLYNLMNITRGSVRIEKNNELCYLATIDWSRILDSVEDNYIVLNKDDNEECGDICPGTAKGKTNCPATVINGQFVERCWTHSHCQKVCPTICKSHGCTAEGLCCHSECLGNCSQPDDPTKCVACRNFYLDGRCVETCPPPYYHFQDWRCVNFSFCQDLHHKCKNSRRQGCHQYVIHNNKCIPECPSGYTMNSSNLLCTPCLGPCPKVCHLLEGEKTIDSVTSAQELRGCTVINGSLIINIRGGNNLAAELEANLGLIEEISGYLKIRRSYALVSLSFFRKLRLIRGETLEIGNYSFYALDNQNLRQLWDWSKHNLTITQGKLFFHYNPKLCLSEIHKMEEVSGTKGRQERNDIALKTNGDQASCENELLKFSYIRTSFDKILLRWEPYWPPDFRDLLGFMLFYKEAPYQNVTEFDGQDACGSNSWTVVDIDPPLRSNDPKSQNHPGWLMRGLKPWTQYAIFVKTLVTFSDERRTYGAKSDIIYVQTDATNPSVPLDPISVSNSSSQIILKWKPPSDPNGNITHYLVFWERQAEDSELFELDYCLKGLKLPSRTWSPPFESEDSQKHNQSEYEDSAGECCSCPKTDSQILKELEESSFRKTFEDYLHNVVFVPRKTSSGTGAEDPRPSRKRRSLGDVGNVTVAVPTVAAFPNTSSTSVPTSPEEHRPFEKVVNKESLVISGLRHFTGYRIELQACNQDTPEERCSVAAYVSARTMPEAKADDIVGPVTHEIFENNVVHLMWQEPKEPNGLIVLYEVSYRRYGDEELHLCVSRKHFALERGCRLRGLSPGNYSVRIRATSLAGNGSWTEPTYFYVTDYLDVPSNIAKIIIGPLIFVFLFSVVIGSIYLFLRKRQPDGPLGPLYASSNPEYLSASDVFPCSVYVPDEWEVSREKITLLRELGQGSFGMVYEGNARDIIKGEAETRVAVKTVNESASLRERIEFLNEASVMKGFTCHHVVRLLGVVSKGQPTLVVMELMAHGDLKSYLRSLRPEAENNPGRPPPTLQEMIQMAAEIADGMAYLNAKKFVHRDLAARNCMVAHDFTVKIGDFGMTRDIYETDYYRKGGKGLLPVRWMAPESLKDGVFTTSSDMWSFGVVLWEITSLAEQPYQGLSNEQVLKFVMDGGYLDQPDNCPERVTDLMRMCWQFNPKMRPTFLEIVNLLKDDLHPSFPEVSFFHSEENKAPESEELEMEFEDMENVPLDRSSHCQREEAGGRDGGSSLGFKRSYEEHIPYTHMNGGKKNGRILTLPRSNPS

[10] = molecular target: T6, human 5-HT2A (Homo sapiens, UniProt P28223); assay: 5-HT2A agonist effect measured by HTRF as changes in IP1, HEK-293 cells; type: cell-based; details: 3.0E-05 M; control 10 μM serotonin; 30 min at 37° C.; duplicate averaged
T6 construct: expressed in transfected cells; host or cells: HEK-293
T6 sequence (P28223 whole entry, looked up): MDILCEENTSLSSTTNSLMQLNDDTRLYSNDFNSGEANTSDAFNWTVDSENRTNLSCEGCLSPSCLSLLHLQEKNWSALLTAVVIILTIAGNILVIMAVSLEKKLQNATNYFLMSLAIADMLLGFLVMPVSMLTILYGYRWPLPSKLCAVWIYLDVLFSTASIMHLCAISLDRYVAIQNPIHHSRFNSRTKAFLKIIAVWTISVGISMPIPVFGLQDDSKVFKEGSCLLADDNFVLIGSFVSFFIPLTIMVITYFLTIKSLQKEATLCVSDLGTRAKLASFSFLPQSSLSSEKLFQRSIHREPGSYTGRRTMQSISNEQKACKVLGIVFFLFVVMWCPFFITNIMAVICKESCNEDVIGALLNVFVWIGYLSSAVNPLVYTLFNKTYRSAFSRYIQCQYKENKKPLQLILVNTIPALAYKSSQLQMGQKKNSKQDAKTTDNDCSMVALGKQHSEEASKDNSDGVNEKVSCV
Protocol: Potential agonist effects of BK-5F-NM-AMT, BK-5F-NM-AMT, and BK-5F-NM-AMT at 5-HT2A receptors was measured by HTRF as changes in IPl. The effects were measured using human 5-HT2A expressed in HEK-293 cells, based on methods reported in Porter et al. British Journal of Pharmacology, 1999. 128(1), 13-20. Incubation was 30 min at 37° C. 10 μM serotonin was used as a positive control. The tryptamine derivatives were each tested at six concentrations from 3.0E-10 to 3.0E-05 M using log steps. All assays were performed in duplicate with results averaged.

[11] = test system: MDMA-trained rats; assay: Drug discrimination in rats trained to distinguish MDMA from placebo; type: in vivo; details: 1, 2, and 4 mg/kg intraperitoneal

Chain of Adenosine Receptor A2A (ADORA2A) (P29274 whole entry): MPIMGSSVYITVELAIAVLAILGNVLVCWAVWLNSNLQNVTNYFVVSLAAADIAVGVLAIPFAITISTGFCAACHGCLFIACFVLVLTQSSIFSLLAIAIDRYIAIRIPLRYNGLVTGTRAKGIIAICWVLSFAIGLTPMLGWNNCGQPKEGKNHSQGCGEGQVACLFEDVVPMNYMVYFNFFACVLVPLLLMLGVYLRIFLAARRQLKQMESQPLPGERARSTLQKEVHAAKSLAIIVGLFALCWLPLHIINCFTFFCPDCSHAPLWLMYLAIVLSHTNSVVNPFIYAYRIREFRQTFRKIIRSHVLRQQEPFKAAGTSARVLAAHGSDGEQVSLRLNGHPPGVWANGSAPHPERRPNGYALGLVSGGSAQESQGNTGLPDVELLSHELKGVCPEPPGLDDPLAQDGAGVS
Chain of 5-Hydroxytryptamine (Serotonin) Receptor 1B (5-HT1B) (P28222 whole entry): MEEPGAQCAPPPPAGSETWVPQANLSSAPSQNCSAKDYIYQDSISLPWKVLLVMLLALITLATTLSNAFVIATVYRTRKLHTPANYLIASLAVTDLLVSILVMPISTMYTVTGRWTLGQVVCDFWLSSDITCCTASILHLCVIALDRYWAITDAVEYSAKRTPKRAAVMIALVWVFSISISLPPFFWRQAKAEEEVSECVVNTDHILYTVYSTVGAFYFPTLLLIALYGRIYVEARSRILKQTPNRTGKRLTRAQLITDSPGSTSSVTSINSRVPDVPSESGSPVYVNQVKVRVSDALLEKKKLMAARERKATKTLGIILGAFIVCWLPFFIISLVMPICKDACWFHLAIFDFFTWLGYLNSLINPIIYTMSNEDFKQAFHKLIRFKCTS

Row | SMILES | EC50 [1] [µM] | IC50 [1] [µM] | EC50 [2] [µM] | IC50 [2] [µM] | EC50 [3] [µM] | IC50 [3] [µM] | EC50 [4] [µM] | IC50 [4] [µM] | EC50 [5] [µM] | IC50 [5] [µM] | IC50 [6] [µM] | IC50 [7] [µM] | IC50 [8] [µM] | IC50 [9] [µM] | Signal changes at the highest tested concentration [10] | percent responses on the MDMA-associated lever ([11]; 30 min prior to test, four MDMA-trained rats) | rate of lever pressing (responses per second) ([11]; control measure)
1 | CNC(C)C(=O)c1c[nH]c2ccc(Br)cc12 (centres unmarked) [BK-5Br-NM-AMT, 1-(5-bromo-1H-indol-3-yl)-2-(methylamino) propan-1-one hydrochloride] | > 10 | > 10 | > 10 | > 10 | > 10 | > 10 | > 10 | 4.26 | > 10 | > 10 | > 10 | > 10 | > 10 | > 10 | −1.1 % of control | – | –
2 | CNC(C)C(=O)c1c[nH]c2ccc(F)cc12 (centres unmarked) [BK-5F-NM-AMT, 1-(5-Fluoro-1H-indol-3-yl)-2-(methylamino) propan-1-one hydrochloride] | > 10 | > 10 | > 10 | > 10 | > 10 | > 10 | > 10 | 5.2 | > 10 | > 10 | > 10 | > 10 | > 10 | > 10 | −0.8 % of control | significantly and dose-dependently different from those of MDMA | not altered
3 | CNC(C)C(=O)c1c[nH]c2ccc(Cl)cc12 (centres unmarked) [BK-5Cl-NM-AMT, 1-(5-chloro-1H-indol-3-yl)-2-(methylamino) propan-1-one hydrochloride] | > 10 | > 10 | > 10 | > 10 | > 10 | > 10 | > 10 | 6.22 | > 10 | > 10 | > 10 | > 10 | > 10 | > 10 | 1.3 % of control | – | –

Reference: US20230257347A1 (priority 2020, published 2023)
